From ChEMBL document CHEMBL4725398 (Bioorg Med Chem, 2020)

Columns and labels:
[1] = molecular target: Epidermal growth factor receptor (Homo sapiens, UniProt P00533); experiment: Inhibition of wild type EGFR (unknown origin) in presence of ATP preincubated 5 mins measured for 30 mins by detection reagent based HTRF analysis
[2] = molecular target: Epidermal growth factor receptor (Homo sapiens, UniProt P00533, L858R/T790M); experiment: Inhibition of recombinant human EGFR T790M/L858R mutant expressed in baculovirus insect cell expression system in presence of ATP preincubated 5 mins measured for 30 mins by detection reagent based HTRF analysis
Sequence of Epidermal growth factor receptor (Homo sapiens, UniProt P00533, L858R/T790M) (P00533 25-1210 T790M/L858R limits assumed): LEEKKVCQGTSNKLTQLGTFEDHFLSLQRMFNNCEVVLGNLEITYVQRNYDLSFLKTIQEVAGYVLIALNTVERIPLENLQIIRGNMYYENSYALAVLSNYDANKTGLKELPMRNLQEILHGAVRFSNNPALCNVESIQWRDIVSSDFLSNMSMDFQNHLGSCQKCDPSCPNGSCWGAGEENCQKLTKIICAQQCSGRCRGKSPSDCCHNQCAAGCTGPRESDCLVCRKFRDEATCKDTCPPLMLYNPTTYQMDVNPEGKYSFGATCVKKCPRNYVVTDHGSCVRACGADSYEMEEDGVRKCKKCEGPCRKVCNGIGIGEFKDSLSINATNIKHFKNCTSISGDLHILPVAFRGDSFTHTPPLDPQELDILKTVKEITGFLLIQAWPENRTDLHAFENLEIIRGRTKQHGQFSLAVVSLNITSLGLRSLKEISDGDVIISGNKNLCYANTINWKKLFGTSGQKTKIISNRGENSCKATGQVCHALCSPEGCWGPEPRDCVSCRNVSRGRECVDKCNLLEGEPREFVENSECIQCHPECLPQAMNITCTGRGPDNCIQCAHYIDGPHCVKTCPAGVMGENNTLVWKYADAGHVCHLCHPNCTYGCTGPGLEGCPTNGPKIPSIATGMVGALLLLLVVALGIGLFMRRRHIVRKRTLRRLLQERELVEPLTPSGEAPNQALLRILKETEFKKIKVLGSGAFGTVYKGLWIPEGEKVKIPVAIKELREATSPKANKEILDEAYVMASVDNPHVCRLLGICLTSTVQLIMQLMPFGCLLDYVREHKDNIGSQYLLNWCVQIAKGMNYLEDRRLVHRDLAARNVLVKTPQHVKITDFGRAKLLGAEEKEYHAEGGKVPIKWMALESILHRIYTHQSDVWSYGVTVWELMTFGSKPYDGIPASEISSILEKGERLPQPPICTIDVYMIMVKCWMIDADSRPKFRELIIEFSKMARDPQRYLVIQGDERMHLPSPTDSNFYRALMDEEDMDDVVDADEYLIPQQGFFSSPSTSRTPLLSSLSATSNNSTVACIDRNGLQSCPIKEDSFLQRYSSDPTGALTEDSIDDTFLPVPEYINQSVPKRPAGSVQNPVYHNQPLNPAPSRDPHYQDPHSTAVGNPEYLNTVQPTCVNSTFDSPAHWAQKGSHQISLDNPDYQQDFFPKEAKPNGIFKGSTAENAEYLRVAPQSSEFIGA

[3] = tested on: A-431; experiment: cells; details: Homo sapiens, A-431, 48 h
Description: Antiproliferation activity against human A431 cells assessed as reduction in cell viability incubated incubated for 48 hrs by MTT assay

[4] = tested on: NCI-H1975; experiment: cells; details: Homo sapiens, NCI-H1975, 48 h
[5] = tested on: SW-620; experiment: cells; details: Homo sapiens, SW-620, 48 h
Description: Antiproliferation activity against EGFR-negative human SW620 cells assessed as reduction in cell viability incubated incubated for 48 hrs by MTT assay

[6] = tested on: COS-7; experiment: Cytotoxicity against African green monkey COS7 cells assessed as decrease in cell viability incubated incubated for 48 hrs by MTT assay; format: cell-based; details: Chlorocebus aethiops, COS-7, 48 h
[7] = tested on: NCI-H1975; experiment: Cell cycle arrest in human NCI-H1975 cells assessed as increase in accumulation at G0/G1 phase at 0.25 to 1 uM treated for 24 hrs measured after 2 days by propidium iodide staining based flow cytometric analysis (reference value: 41.92%); format: functional; details: dose microM 0.25-1
[8] = tested on: NCI-H1975; experiment: Cell cycle arrest in human NCI-H1975 cells assessed as decrease in accumulation at G2/M phase at 0.25 to 1 uM incubated for 24 hrs measured after 2 days by propidium iodide staining based flow cytometric analysis (reference value: 34.04%); format: functional; parameters: scale not given: the % may be the effect or the level left; details: dose microM 0.25-1
[9] = tested on: NCI-H1975; experiment: Cell cycle arrest in human NCI-H1975 cells assessed as diploid cell at 0.25 uM incubated for 24 hrs measured after 2 days by propidium iodide staining based flow cytometric analysis (reference value: 100 %); format: functional
[10] = tested on: NCI-H1975; experiment: Cell cycle arrest in human NCI-H1975 cells assessed as diploid cell at 0.5 uM incubated for 24 hrs measured after 2 days by propidium iodide staining based flow cytometric analysis (reference value: 100 %); format: functional
[11] = tested on: NCI-H1975; experiment: Cell cycle arrest in human NCI-H1975 cells assessed as diploid cell at 1 uM incubated for 24 hrs measured after 2 days by propidium iodide staining based flow cytometric analysis (reference value: 100 %); format: functional
[12] = tested on: NCI-H1975; experiment: Cell cycle arrest in human NCI-H1975 cells assessed as accumulation at G1 phase at 0.25 uM incubated for 24 hrs measured after 2 days by propidium iodide staining based flow cytometric analysis (reference value: 41.92 %); format: functional
[13] = tested on: NCI-H1975; experiment: Cell cycle arrest in human NCI-H1975 cells assessed as accumulation at G1 phase at 0.5 uM incubated for 24 hrs measured after 2 days by propidium iodide staining based flow cytometric analysis (reference value: 41.92 %); format: functional
[14] = tested on: NCI-H1975; experiment: Cell cycle arrest in human NCI-H1975 cells assessed as accumulation at G1 phase at 1 uM incubated for 24 hrs measured after 2 days by propidium iodide staining based flow cytometric analysis (reference value: 41.92 %); format: functional
[15] = tested on: NCI-H1975; experiment: Cell cycle arrest in human NCI-H1975 cells assessed as accumulation at S phase at 0.25 uM incubated for 24 hrs measured after 2 days by propidium iodide staining based flow cytometric analysis (reference value: 24.04 %); format: functional
[16] = tested on: NCI-H1975; experiment: Cell cycle arrest in human NCI-H1975 cells assessed as accumulation at S phase at 0.5 uM incubated for 24 hrs measured after 2 days by propidium iodide staining based flow cytometric analysis (reference value: 24.04 %); format: functional
[17] = tested on: NCI-H1975; experiment: Cell cycle arrest in human NCI-H1975 cells assessed as accumulation at S phase at 1 uM incubated for 24 hrs measured after 2 days by propidium iodide staining based flow cytometric analysis (reference value: 24.04 %); format: functional
[18] = tested on: NCI-H1975; experiment: Cell cycle arrest in human NCI-H1975 cells assessed as accumulation at G2 phase at 0.25 uM incubated for 24 hrs measured after 2 days by propidium iodide staining based flow cytometric analysis (reference value: 34.04 %); format: functional
[19] = tested on: NCI-H1975; experiment: Cell cycle arrest in human NCI-H1975 cells assessed as accumulation at G2 phase at 0.5 uM incubated for 24 hrs measured after 2 days by propidium iodide staining based flow cytometric analysis (reference value: 34.04 %); format: functional
[20] = tested on: NCI-H1975; experiment: Cell cycle arrest in human NCI-H1975 cells assessed as accumulation at G2 phase at 1 uM incubated for 24 hrs measured after 2 days by propidium iodide staining based flow cytometric analysis (reference value: 34.04 %); format: functional
[21] = tested on: NCI-H1975; experiment: Cell cycle arrest in human NCI-H1975 cells assessed as accumulation at G2/G1 phase at 0.25 uM incubated for 24 hrs measured after 2 days by propidium iodide staining based flow cytometric analysis (reference value: 1.89 %); format: functional
[22] = tested on: NCI-H1975; experiment: Cell cycle arrest in human NCI-H1975 cells assessed as accumulation at G2/G1 phase at 0.5 uM incubated for 24 hrs measured after 2 days by propidium iodide staining based flow cytometric analysis (reference value: 1.89 %); format: functional
[23] = tested on: NCI-H1975; experiment: Cell cycle arrest in human NCI-H1975 cells assessed as accumulation at G2/G1 phase at 1 uM incubated for 24 hrs measured after 2 days by propidium iodide staining based flow cytometric analysis (reference value: 1.89 %); format: functional

Sequence of Epidermal growth factor receptor (Homo sapiens, UniProt P00533) (P00533 whole entry): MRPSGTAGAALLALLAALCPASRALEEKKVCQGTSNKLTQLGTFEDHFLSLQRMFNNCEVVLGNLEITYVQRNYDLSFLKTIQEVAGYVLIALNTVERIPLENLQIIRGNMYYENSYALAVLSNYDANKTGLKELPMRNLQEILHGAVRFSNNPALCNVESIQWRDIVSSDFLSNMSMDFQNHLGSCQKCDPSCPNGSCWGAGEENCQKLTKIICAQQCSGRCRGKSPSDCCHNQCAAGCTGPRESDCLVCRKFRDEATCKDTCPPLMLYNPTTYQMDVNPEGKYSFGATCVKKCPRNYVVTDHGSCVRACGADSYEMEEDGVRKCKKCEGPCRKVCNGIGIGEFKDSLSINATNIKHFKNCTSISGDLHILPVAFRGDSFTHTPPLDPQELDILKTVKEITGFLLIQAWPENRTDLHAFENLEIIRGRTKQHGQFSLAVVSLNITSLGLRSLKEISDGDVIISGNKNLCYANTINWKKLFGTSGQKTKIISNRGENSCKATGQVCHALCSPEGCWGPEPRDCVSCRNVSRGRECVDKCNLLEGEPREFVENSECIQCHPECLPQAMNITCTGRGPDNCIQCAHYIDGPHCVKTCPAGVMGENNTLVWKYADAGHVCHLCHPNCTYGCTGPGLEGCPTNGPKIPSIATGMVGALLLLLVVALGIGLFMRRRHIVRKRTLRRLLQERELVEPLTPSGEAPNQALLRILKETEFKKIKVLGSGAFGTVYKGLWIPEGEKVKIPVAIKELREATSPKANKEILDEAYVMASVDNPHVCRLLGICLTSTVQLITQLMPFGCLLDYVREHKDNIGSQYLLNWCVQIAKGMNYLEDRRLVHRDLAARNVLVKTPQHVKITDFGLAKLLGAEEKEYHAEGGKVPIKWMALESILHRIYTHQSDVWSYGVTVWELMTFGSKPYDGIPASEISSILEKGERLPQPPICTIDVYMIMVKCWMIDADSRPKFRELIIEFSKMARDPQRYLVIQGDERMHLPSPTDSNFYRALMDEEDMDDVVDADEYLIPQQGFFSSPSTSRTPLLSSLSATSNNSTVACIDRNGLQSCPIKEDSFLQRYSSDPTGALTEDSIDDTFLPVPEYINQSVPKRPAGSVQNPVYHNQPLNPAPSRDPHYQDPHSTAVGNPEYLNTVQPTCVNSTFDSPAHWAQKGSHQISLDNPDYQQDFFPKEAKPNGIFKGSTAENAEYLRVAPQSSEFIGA

| Compound | IC50 [3] | IC50 [4] | IC50 [5] | also measured |
| --- | --- | --- | --- | --- |
| C=C(Cl)C(=O)Nc1cccc(Nc2nc(Nc3ccc(N4CCN(C(C)=O)CC4)nc3)ncc2Cl)c1 | 0.87 µM | 1.64 µM | 2.41 µM | IC50 [1]: 0.13 µM; IC50 [2]: 0.0075 µM |
| C=C(F)C(=O)Nc1cccc(Nc2nc(Nc3ccc(N4CCN(C(C)=O)CC4)cc3OC)ncc2Cl)c1 | 1.58 µM | 1.82 µM |  |  |
| C=C(Cl)C(=O)Nc1cccc(Oc2nc(Nc3ccc(N4CCN(C)CC4)cc3OC)ncc2Cl)c1 | 1.06 µM | 13.6 µM |  |  |
| C=C(Cl)C(=O)Nc1cccc(Nc2nc(Nc3ccc(N4CCN(C(C)=O)CC4)cc3OC)ncc2Cl)c1 | 4.44 µM | 3.12 µM |  |  |
| C=C(Cl)C(=O)Nc1cccc(Nc2nc(Nc3ccc(N4CCN(C(C)=O)CC4)c(C)c3)ncc2Cl)c1 | 1.3 µM | 0.18 µM | 2.07 µM | IC50 [6]: 5.4 µM; IC50 [1]: 0.051 µM; IC50 [2]: 0.0026 µM |
| C=C(Cl)C(=O)Nc1cccc(Nc2nc(Nc3ccc(N4CCN(C(C)=O)CC4)cc3OC)ncc2C(F)(F)F)c1 | 3.68 µM | 0.2 µM | 3.99 µM | IC50 [1]: 0.257 µM; IC50 [2]: 0.016 µM |
| C=C(F)C(=O)Nc1cc(Nc2ncc(Cl)c(-c3cn(C)c4ccccc34)n2)ccc1N(C)C | > 50 µM | > 50 µM |  |  |
| C=C(F)C(=O)Nc1cccc(Oc2nc(Nc3ccc(N4CCN(C(C)=O)CC4)cc3OC)ncc2Cl)c1 | > 50 µM | 7.03 µM |  |  |
| C=C(Cl)C(=O)Nc1cccc(Oc2nc(Nc3ccc(N4CCN(C(C)=O)CC4)c(C(F)(F)F)c3)ncc2Cl)c1 | 1.47 µM | 2.5 µM |  |  |
| C=C(F)C(=O)Nc1cccc(Nc2nc(Nc3ccc(N4CCN(C(C)=O)CC4)c(C(F)(F)F)c3)ncc2Cl)c1 | 2.86 µM | 9.88 µM |  |  |
| C=C(Cl)C(=O)Nc1cccc(Nc2nc(Nc3ccc(N4CCN(C(C)=O)CC4)c(Cl)c3)ncc2Cl)c1 | 0.14 µM | 1.02 µM | 2.34 µM | IC50 [6]: 7.22 µM; IC50 [1]: 0.053 µM; IC50 [2]: 0.0032 µM |
| C=C(Cl)C(=O)Nc1cccc(Nc2nc(Nc3ccc(N4CCN(C(C)=O)CC4)cc3Cl)ncc2Cl)c1 | 1.83 µM | 1.72 µM | 3.02 µM | IC50 [6]: 14.9 µM; IC50 [1]: 0.301 µM; IC50 [2]: 0.047 µM |
| C=C(C(=O)Nc1cccc(Nc2nc(Nc3ccc(N4CCN(C(C)=O)CC4)cc3)ncc2Cl)c1)c1ccccc1 | 6.16 µM | 5.79 µM |  |  |
| C=C(Cl)C(=O)Nc1cccc(Oc2nc(Nc3ccc(N4CCN(C(C)=O)CC4)cc3OC)ncc2Cl)c1 | 1.89 µM | 3.32 µM |  |  |
| C=C(Cl)C(=O)Nc1cccc(Nc2nc(Nc3ccc(N4CCN(C(C)=O)CC4)c(F)c3)ncc2Cl)c1 | 1.14 µM | 0.42 µM |  |  |
| C=C(F)C(=O)Nc1cccc(Nc2nc(Nc3ccc(N4CCN(C(C)=O)CC4)c(F)c3)ncc2Cl)c1 | 7.09 µM | 6.56 µM |  |  |
| C=C(C)C(=O)Nc1cccc(Nc2nc(Nc3ccc(N4CCN(C(C)=O)CC4)cc3OC)ncc2Cl)c1 | 2.37 µM | 3.82 µM |  |  |
| C=C(Cl)C(=O)Nc1cccc(Oc2nc(Nc3ccc(N4CCN(C(C)=O)CC4)cc3)ncc2Cl)c1 | 0.62 µM | 1.15 µM | 4.6 µM | IC50 [1]: 0.13 µM; IC50 [2]: 0.013 µM |
| C=C(Cl)C(=O)Nc1cc(Nc2ncc(Cl)c(-c3cn(C)c4ccccc34)n2)ccc1N(C)C | 2.2 µM | 16.9 µM |  |  |
| C=C(F)C(=O)Nc1cccc(Nc2nc(Nc3ccc(N4CCN(C(C)=O)CC4)c(Cl)c3)ncc2Cl)c1 | 7.13 µM | 4.18 µM |  |  |
| C=C(C)C(=O)Nc1cccc(Nc2nc(Nc3ccc(N4CCN(C(C)=O)CC4)cc3)ncc2Cl)c1 | 10.6 µM | 5.57 µM |  |  |
| C=C(Cl)C(=O)Nc1cccc(Nc2nc(Nc3ccc(N4CCN(C(C)=O)CC4)cc3)ncc2Cl)c1 | 3.14 µM | 0.75 µM | 29.2 µM | IC50 [6]: 10.4 µM; Activity [7]: 58.39%; Activity [8]: 22.18%; Activity [9]: 98.52%; Activity [10]: 98.81%; Activity [11]: 99.81%; Activity [12]: 54.06%; Activity [13]: 58.39%; Activity [14]: 63.96%; Activity [15]: 21.67%; Activity [16]: 19.43%; Activity [17]: 16.89%; Activity [18]: 24.27%; Activity [19]: 22.18%; Activity [20]: 19.15%; Activity [21]: 1.95%; Activity [22]: 1.94%; Activity [23]: 1.89%; IC50 [1]: 0.07 µM; IC50 [2]: 0.0039 µM |
| C=C(F)C(=O)Nc1cccc(Nc2nc(Nc3ccc(N4CCN(C(C)=O)CC4)cc3)ncc2Cl)c1 | 6.5 µM | 0.34 µM | 3.61 µM |  |
| C=C(F)C(=O)Nc1cccc(Nc2nc(Nc3ccc(N4CCN(C(C)=O)CC4)nc3)ncc2Cl)c1 | 18.1 µM | 20.5 µM |  |  |
| C=C(F)C(=O)Nc1cccc(Oc2nc(Nc3ccc(N4CCN(C)CC4)cc3OC)ncc2Cl)c1 | 11 µM | 16.7 µM |  |  |
| C=CC(=O)Nc1cccc(Nc2nc(Nc3ccc(N4CCN(C(C)=O)CC4)cc3OC)ncc2C(F)(F)F)c1 [ROCILETINIB] | 6.01 µM | 0.51 µM | 10.5 µM | IC50 [6]: 7.39 µM |
